{"source": "paper PMC8476002", "about": "“Bergamottin a CYP3A inhibitor found in grapefruit juice inhibits prostate cancer cell growth by downregulating androgen receptor signaling and promoting G0/G1 cell cycle block and apoptosis” (PLoS ONE, 2021)", "format_in_all_cases": "cell-based, human", "key": {"[1]": {"system": "RWPE1 cells (non transformed prostate epithelium)", "test": "MTT growth assay, RWPE1", "description": "Growth of the cells was measured using a MTT assay. Cells were plated (2000 cells/ 96 well or 13,000 cells/ 24 well) for 48 hours then treated with bergamottin for 4 days (96 hours) and then incubated with MTT (3-(4,5-Dimethylthiazol- 2-yl)-2,5-Diphenyltetrazolium bromide) (4 mg/ml) for 2 h. at 37°C. DMSO (vehicle control for bergamottin) levels were compensated in each bergamottin treatment group. Cells were centrifuged at 2000 g for 10 min and the supernatant was discarded. The cell pellet was dissolved in 100/500 μl of DMSO depending on the well size. A plate reader was used to read the absorption at 540 nm. Experiments were performed in octuplet/quadruplet and repeated at least three times."}, "[2]": {"system": "MDAPCa2b cells", "test": "Cell cycle analysis (propidium iodide, flow cytometry), MDAPCa2b", "description": "Cell cycle analysis was performed after staining the cells with propidium iodide (PI). For long term bergamottin treatment (96 hrs.) cells were plated at 25–30% confluence and for short term bergamottin treatment (48 hrs.) they were plated at 30–35% confluence. After completion of specified treatment the cells were trypsinized washed with PBS and fixed in 70% ethanol and then stained with PI in nicoletti buffer (propidium iodide 50 μg/ml, 0.1% sodium citrate, 0.1% triton X-100, RNase 1 mg/ml, in DPBS). Cells were analyzed using C6 Accuri flow cytometer (Becton Dickinson, Mountainview, CA). FlowJo software was used to gate and remove the debris (gate on SSC and FSC) and aggregates (FL2 A and FL2H) from the analysis. Watson pragmatic and Dean-Jett -Fox methods was used to assign percentage frequencies to cells present in the different cell cycle stages."}, "[3]": {"system": "cell cycle regulating proteins in LNCaP cells", "test": "Western blot of cell cycle regulating proteins, LNCaP", "conditions": "for CDK2, normalized fold change after GAPDH calibration / CDK4, normalized fold change after GAPDH calibration / CDK6, normalized fold change after GAPDH calibration / Cyclin A, normalized fold change after GAPDH calibration / Cyclin B1, normalized fold change after GAPDH calibration / Cyclin D1, normalized fold change after GAPDH calibration / Cyclin D3, normalized fold change after GAPDH calibration / Cyclin E, normalized fold change after GAPDH calibration / Myt 1, normalized fold change after GAPDH calibration / P-Wee1, normalized fold change after GAPDH calibration / P-cdc2, normalized fold change after GAPDH calibration / P-histone H3, normalized fold change after GAPDH calibration / p21, normalized fold change after GAPDH calibration / p27, normalized fold change after GAPDH calibration: LNCAP, 48 hrs., 0 μM = 100", "description": "Cells were plated at 25–30% confluence when maintained in complete media. When the cells required DHT tretment and media replacement to charcoal stripped serum media (CSSM) they were plated at 35–40% confluence. Bergamottin is dissolved in DMSO (vehicle control) and the amount of DMSO at each treatment group was kept constant. After the completion of the treatment cells were washed in phosphate buffer (PBS) containing 2mMEDTA and 2mM EGTA and lysed in RIPA buffer (50 mM TRIS, 150 mM NaCl, 1% NP40, 0.5% sodium deoxycholate, 0.1% SDS, 2mM EDTA, 2mM EGTA) supplemented with protease and phosphatase inhibitors for total protein isolation. Protein estimation was performed using micro BCA assay and equal protein amponts were loaded on SDS-PAGE gels for western analysis. GAPDH was used as an internal control for total protein. Infrared fluorescent-labeled secondary antibodies were used for detection using Odyssey CLx. The bands were quantified using Odyssey software, which calculates pixel density and automatically takes an area adjacent to each band for background corrections. […]"}, "[4]": {"system": "AR nuclear localization in MDAPCa2b cells", "test": "Confocal microscopy of AR nuclear localization, MDAPCa2b", "conditions": "bergamottin 10μM, versus DMSO", "description": "Cells were seeded into 35 mm Glass bottom dish (Cellvis catalog# D35C4-20-1.5-N) in complete media; media was changed to CSSM prior to DHT treatment. The cells were fixed in 4% paraformaldehyde for 20 minutes and permeabilized using permeabilizing buffer (0.2% Tween 20 in PBS) for 5 minutes. Cells were blocked using 10% goat serum diluted in permeabilizing buffer with 1% BSA for 15 minutes. Primary antibodies were diluted at 1:100 in staining buffer (1% BSA in PBS) and incubated for 2 hours at room temperature. Cells were washed three times (5 minutes each) in PBS. Secondary antibodies, TRITC-conjugated Donkey Anti-rabbit (711-025-152) was from Jackson immuno research, West Grove, PA was diluted at 1:100 in staining buffer and incubated for 60 minutes at room temperature. Cells were washed three times (5 minutes) in PBS and stained with 1 μg/mL DAPI (4’, 6-diamidino-2-phenylindole) in PBS for 5 minutes at room temperature. The cells were stored in PBS at 4°C until imaging was completed.\nCells were imaged using confocal laser scanning microscopy on a Nikon A1R using a galvano scanner and a 60× Apo-TIRF oil immersion objective. NIS Elements software form Nikon was used for recording the data."}, "[5]": {"conditions": "LNCaP, low dose 5 and 10 μM, 96 hrs."}}, "data": [{"compound": "CC(C)=CCC/C(C)=C/COc1c2ccoc2cc2oc(=O)ccc12", "note": "[bergamottin]", "values": [{"measurement": "inhibition at 10 µM", "setting": "[1]; Homo sapiens, RWPE-1, RWPE1, 10μM", "value": 60, "unit": "%"}, {"measurement": "effect on growth at lower concentration", "setting": "[1]; RWPE1, lower concentration", "value": "does not effect growth"}, {"measurement": "G1 frequency, Dean-Jett-Fox", "setting": "[2]; Berg 5μM, 96 hrs.", "value": "84.2 ±1.5", "unit": "%"}, {"measurement": "G2 frequency, Dean-Jett-Fox", "setting": "[2]; Berg 5μM, 96 hrs.", "value": "2.3 ±2.2", "unit": "%"}, {"measurement": "G2 frequency, Watson Pragmatic", "setting": "[2]; Berg 5μM, 96 hrs.", "value": "8.4 ±1.6", "unit": "%"}, {"measurement": "S frequency, Dean-Jett-Fox", "setting": "[2]; Berg 5μM, 96 hrs.", "value": "12.2 ±1.0", "unit": "%"}, {"measurement": "S frequency, Watson Pragmatic", "setting": "[2]; Berg 5μM, 96 hrs.", "value": "7.7 ±2.6", "unit": "%"}, {"measurement": "G1 frequency, Dean-Jett-Fox", "setting": "[2]; Berg 10μM, 96 hrs.", "value": "88.8 ±2.0", "unit": "%"}, {"measurement": "G2 frequency, Dean-Jett-Fox", "setting": "[2]; Berg 10μM, 96 hrs.", "value": "3.3 ±0.3", "unit": "%"}, {"measurement": "G2 frequency, Watson Pragmatic", "setting": "[2]; Berg 10μM, 96 hrs.", "value": "6.6 ±1.2", "unit": "%"}, {"measurement": "S frequency, Dean-Jett-Fox", "setting": "[2]; Berg 10μM, 96 hrs.", "value": "7.4 ±2.5", "unit": "%"}, {"measurement": "S frequency, Watson Pragmatic", "setting": "[2]; Berg 10μM, 96 hrs.", "value": "5.8 ±2.8", "unit": "%"}, {"measurement": "G1 frequency, Dean-Jett-Fox", "setting": "[2]; Berg 20μM, 48 hrs.", "value": "84.9 ±0.4", "unit": "%"}, {"measurement": "G2 frequency, Dean-Jett-Fox", "setting": "[2]; Berg 20μM, 48 hrs.", "value": "9.6 ±0.5", "unit": "%"}, {"measurement": "G2 frequency, Watson Pragmatic", "setting": "[2]; Berg 20μM, 48 hrs.", "value": "9.6 ±1.8", "unit": "%"}, {"measurement": "S frequency, Dean-Jett-Fox", "setting": "[2]; Berg 20μM, 48 hrs.", "value": "6.7 ±0.7", "unit": "%"}, {"measurement": "S frequency, Watson Pragmatic", "setting": "[2]; Berg 20μM, 48 hrs.", "value": "7.1 ±1.7", "unit": "%"}, {"measurement": "G1 frequency, Dean-Jett-Fox", "setting": "[2]; Berg 30μM, 48 hrs.", "value": "88.4 ±3.6", "unit": "%"}, {"measurement": "G2 frequency, Dean-Jett-Fox", "setting": "[2]; Berg 30μM, 48 hrs.", "value": "6.8 ±3.2", "unit": "%"}, {"measurement": "G2 frequency, Watson Pragmatic", "setting": "[2]; Berg 30μM, 48 hrs.", "value": "8.4 ±1.1", "unit": "%"}, {"measurement": "S frequency, Dean-Jett-Fox", "setting": "[2]; Berg 30μM, 48 hrs.", "value": "3.3 ±3.4", "unit": "%"}, {"measurement": "S frequency, Watson Pragmatic", "setting": "[2]; Berg 30μM, 48 hrs.", "value": "5.6 ±0.5", "unit": "%"}, {"measurement": "CDK2, normalized fold change after GAPDH calibration", "setting": "[3]; Bergamottin 20 μM", "value": 62}, {"measurement": "CDK4, normalized fold change after GAPDH calibration", "setting": "[3]; Bergamottin 20 μM", "value": 46}, {"measurement": "CDK6, normalized fold change after GAPDH calibration", "setting": "[3]; Bergamottin 20 μM", "value": 60}, {"measurement": "Cyclin A, normalized fold change after GAPDH calibration", "setting": "[3]; Bergamottin 20 μM", "value": 80}, {"measurement": "Cyclin B1, normalized fold change after GAPDH calibration", "setting": "[3]; Bergamottin 20 μM", "value": 50}, {"measurement": "Cyclin D1, normalized fold change after GAPDH calibration", "setting": "[3]; Bergamottin 20 μM", "value": 43}, {"measurement": "Cyclin D3, normalized fold change after GAPDH calibration", "setting": "[3]; Bergamottin 20 μM", "value": 68}, {"measurement": "Cyclin E, normalized fold change after GAPDH calibration", "setting": "[3]; Bergamottin 20 μM", "value": 109}, {"measurement": "Myt 1, normalized fold change after GAPDH calibration", "setting": "[3]; Bergamottin 20 μM", "value": 103}, {"measurement": "P-Wee1, normalized fold change after GAPDH calibration", "setting": "[3]; Bergamottin 20 μM", "value": 63}, {"measurement": "P-cdc2, normalized fold change after GAPDH calibration", "setting": "[3]; Bergamottin 20 μM", "value": 18}, {"measurement": "P-histone H3, normalized fold change after GAPDH calibration", "setting": "[3]; Bergamottin 20 μM", "value": 294}, {"measurement": "p21, normalized fold change after GAPDH calibration", "setting": "[3]; Bergamottin 20 μM", "value": 83}, {"measurement": "p27, normalized fold change after GAPDH calibration", "setting": "[3]; Bergamottin 20 μM", "value": 112}, {"measurement": "CDK2, normalized fold change after GAPDH calibration", "setting": "[3]; Bergamottin 30 μM", "value": 67}, {"measurement": "CDK4, normalized fold change after GAPDH calibration", "setting": "[3]; Bergamottin 30 μM", "value": 30}, {"measurement": "CDK6, normalized fold change after GAPDH calibration", "setting": "[3]; Bergamottin 30 μM", "value": 12}, {"measurement": "Cyclin A, normalized fold change after GAPDH calibration", "setting": "[3]; Bergamottin 30 μM", "value": 55}, {"measurement": "Cyclin B1, normalized fold change after GAPDH calibration", "setting": "[3]; Bergamottin 30 μM", "value": 44}, {"measurement": "Cyclin D1, normalized fold change after GAPDH calibration", "setting": "[3]; Bergamottin 30 μM", "value": 12}, {"measurement": "Cyclin D3, normalized fold change after GAPDH calibration", "setting": "[3]; Bergamottin 30 μM", "value": 44}, {"measurement": "Cyclin E, normalized fold change after GAPDH calibration", "setting": "[3]; Bergamottin 30 μM", "value": 53}, {"measurement": "Myt 1, normalized fold change after GAPDH calibration", "setting": "[3]; Bergamottin 30 μM", "value": 82}, {"measurement": "P-Wee1, normalized fold change after GAPDH calibration", "setting": "[3]; Bergamottin 30 μM", "value": 37}, {"measurement": "P-cdc2, normalized fold change after GAPDH calibration", "setting": "[3]; Bergamottin 30 μM", "value": 5}, {"measurement": "P-histone H3, normalized fold change after GAPDH calibration", "setting": "[3]; Bergamottin 30 μM", "value": 35}, {"measurement": "p21, normalized fold change after GAPDH calibration", "setting": "[3]; Bergamottin 30 μM", "value": 102}, {"measurement": "p27, normalized fold change after GAPDH calibration", "setting": "[3]; Bergamottin 30 μM", "value": 183}, {"measurement": "CDK4 level (western blot)", "setting": "[3]; [5]", "value": "did not observe any significant change"}, {"measurement": "CDK6 level (western blot)", "setting": "[3]; [5]", "value": "did not observe any significant change"}, {"measurement": "cdc-2 phosphorylation (western blot)", "setting": "[3]; [5]", "value": "Decreased cdc-2 phosphorylation"}, {"measurement": "cyclin B1 level (western blot)", "setting": "[3]; [5]", "value": "lower"}, {"measurement": "cyclin D1 level (western blot)", "setting": "[3]; [5]", "value": "lower"}, {"measurement": "cyclin D3 level (western blot)", "setting": "[3]; [5]", "value": "lower"}, {"measurement": "active AR migration to the nucleus with DHT induction (confocal)", "setting": "[4]", "value": "significantly reduced"}]}]}
